Reference: patent US20250197399A1, “COMPOUNDS, COMPOSITIONS, AND METHODS” (Tenvie Therapeutics, Inc., priority 2022, published 2025)
Like-named read-outs stand apart in the source and are kept apart here.

Tested on: NLRP3
Assay: IL-1β secretion assay in PMA-differentiated, LPS/nigericin-stimulated THP-1 cells (ELISA)
Assay type: cell-based
Settings: 25 ng/mL LPS then nigericin, IL-1β in supernatant
Experimental: Compounds as provided herein were tested in the following assay. Cell culture medium employed contained RPMI 1640 medium (89%), FBS (10%), Pen/Strep (1%), and 2-mercaptoethanol (0.05 mM). Freezing medium was made up of 90% FBS and 10% DMSO. THP-1 cells were removed from the liquid nitrogen and placed into a 37° C. water bath to thaw, until signs of ice dissipated. The cells were then added to 9 mL of warm cell culture medium and centrifuged for 5 minutes at 1000 rpm. The supernatant was discarded, and the cells were resuspended in new cell culture medium. THP-1 cells were then split and cultured in the cell culture medium, being passaged every 2-3 days with the cell density will be maintained between 5×10^5 and 1.5×10^6 viable cells/mL.
PMA was dissolved in DMSO to make a stock solution at 5 mg/ml and stored in 10 μl aliquots at −20° C. for single use. PMA is added to normal growth medium. LPS was diluted with 1 mL of water solution to provide a 1 mg/mL stock solution and stored in 15 μL aliquots at −20° C. for single use. Nigericin is diluted in ice cold 100% ethanol to 5 mg/ml (6.7 mM) and stored in 75 μL aliquots at −20° C. for single use. Serum-free media contains RPMI 1640 medium (99%), Pen/Strep (1%), and 2-mercaptoethanol (0.05 mM). The two control conditions used to qualify and normalize test compound dose-response curves were as follows: High Control=25 ng/mL LPS, […], 0.5% DMSO, Low Control=25 ng/mL, LPS, 0.5% DMSO.
THP-1 cells were diluted to provide a suspension at a concentration of 1.0×10^6 cells/mL with the total volume of suspension required to enable the desired number of assay plates. The growth media was supplemented with PMA (5 ng/mL final concentration) and the cells were incubated at 37° C. under a humidified atmosphere of 5% CO2 for 40 h.
All media was carefully aspirated from each culture flask. The cells were washed carefully with 1×DPBS. The cells were then briefly digested with trypsin LE for 5 minutes at 23° C. and immediately resuspended in cell growth media. After resuspension, the cells were centrifuged at 1000 rpm for 3 minutes and the supernatant was discarded. The cells were resuspended in DPBS and once again centrifuged at 1000 rpm for 5 minutes. The supernatant was discarded and the cell pellet was resuspended in serum-free media supplemented with LPS (25 ng/mL final concentration) to enable the distribution of 30K THP-1 cells within 45 μL of media into each well of 384-well PDL-coated plates. The 384-well plates were then incubated at 37° C. under a humidified atmosphere of 5% CO2 for 2 h. Following this period, test compounds were dispensed by Tecan across the desired concentration range with all wells normalized to a final 0.5% DMSO concentration. The plates were then then incubated at 37° C. under a humidified atmosphere of 5% CO2 for 1 h. Following this period, 5 μL of the 5 mg/mL nigericin stock solution was added to each of the appropriate wells and plates were centrifuged at 1000 rpm for 30 seconds. The plates were the immediately reintroduced to the incubator at 37° C. under a humidified atmosphere of 5% CO2 for 2 h. After this time, 35 μL/well of supernatant was collected and transferred into v-bottom plate and centrifuged at 1000 rpm for 1 minute. These supernatant aliquots were analyzed using an IL-Iβ detection kit as described below. If needed, the test samples could be snap frozen and stored at −80° C. until analyzed.
To prepare each ELISA plate, capture antibody (mAb Mt175) was diluted with PBS to a final concentration of […] and then 20 μL of this solution was added to each well of the ELISA plate. Each plate was allowed to incubate overnight at 4° C. The next day, the capture antibody solution was removed and discarded. Each ELISA plate was washed 4 times with PBST followed by the addition of 25 µL/well of blocking buffer (Licor-927-40010) supplemented with 0.1% Tween 20. Each ELISA plate was then allowed to incubate for 1 hour at 23° C. […]

[1] = Homo sapiens, THP-1, THP-1 cells, read-out: Activity (IC50 class)
[2] = THP-1 cells, read-out: Activity
[3] = THP-1 cells, read-out: Activity (IC50 class)

SMILES | IC50 [1] | IC50 [2] | IC50 [3]
C[C@]1(O)C[C@@H](NC(=O)CN2CC(C(F)(F)F)c3cc(I)ccc3C2=O)C1 (single isomer, unassigned) [Example 10, N-(3-cis-hydroxy-3-methylcyclobutyl)-2-(6-iodo-1-oxo-4-(trifluoromethyl)-3,4-dihydroisoquinolin-2(1H)-yl)acetamide] | 1000 to 10000 nM | 4080 nM | 
O=C(CN1C[C@@]2(C[C@@H]2F)c2c(ccc(C(F)(F)F)c2F)C1=O)Nc1ncc(Cl)cn1 (single isomer, unassigned) [Example 13, 2-[(2′s,4r)-2′,5-difluoro-1-oxo-6-(trifluoromethyl)spiro[3H-isoquinoline-4,1′-cyclopropane]-2-yl]-N-(5-chloropyrimidin-2-yl)acetamide] |  | 232 nM | < 1000 nM
O=C(CN1CC2(CC2(F)F)c2c(ccc(C(F)(F)F)c2F)C1=O)Nc1ncc(Cl)cn1 (single isomer, unassigned) [Example 14, N-(5-chloropyrimidin-2-yl)-2-[1′,1′,5-trifluoro-6-(trifluoromethyl)-1-oxospiro[3H-isoquinoline-4,2′-cyclopropane]-2-yl]acetamide] |  |  | > 10000 nM
O=C(CN1CC2(CC2(F)F)c2c(ccc(C(F)(F)F)c2F)C1=O)Nc1ncc(Cl)cn1 (single isomer, unassigned) [Example 15, N-(5-chloropyrimidin-2-yl)-2-[1′,1′,5-trifluoro-6-(trifluoromethyl)-1-oxospiro[3H-isoquinoline-4,2′-cyclopropane]-2-yl]acetamide] |  | 63 nM | < 1000 nM
O=C(CN1CC2(CC2(F)F)c2cc(Br)ccc2C1=O)Nc1ncc(Cl)cn1 (single isomer, unassigned) [Example 16, N-(5-chloropyrimidin-2-yl)-2-[6-bromo-1′,1′-difluoro-1-oxospiro[3H-isoquinoline-4,2′-cyclopropane]-2-yl]acetamide] | 1000 to 10000 nM | 1590 nM | 
Cc1cnc(NC(=O)CN2CC3(CC3(F)F)c3cc(Br)ccc3C2=O)nc1 (single isomer, unassigned) [Example 18, N-(5-methylpyrimidin-2-yl)-2-[6-bromo-1′,1′-difluoro-1-oxospiro[3H-isoquinoline-4,2′-cyclopropane]-2-yl]acetamide] | 1000 to 10000 nM | 3480 nM | 
Cc1cnc(NC(=O)CN2CC3(CC3(F)F)c3cc(Br)ccc3C2=O)nc1 (single isomer, unassigned) [Example 19, N-(5-methylpyrimidin-2-yl)-2-[6-bromo-1′,1′-difluoro-1-oxospiro[3H-isoquinoline-4,2′-cyclopropane]-2-yl]acetamide] |  | 65 nM | < 1000 nM
C[C@]1(O)C[C@@H](NC(=O)CN2CC3(CC3(F)F)c3cc(Br)ccc3C2=O)C1 (single isomer, unassigned) [Example 20, N-(3-cis-hydroxy-3-methylcyclobutyl)-2-[6-bromo-1′,1′-difluoro-1-oxospiro[3H-isoquinoline-4,2′-cyclopropane]-2-yl]acetamide] |  | 12900 nM | > 10000 nM
C[C@]1(O)C[C@@H](NC(=O)CN2CC3(CC3(F)F)c3cc(C4(F)CC4)ccc3C2=O)C1 (single isomer, unassigned) [Example 22, N-(3-cis-hydroxy-3-methylcyclobutyl)-2-[1′,1′-difluoro-6-(1-fluorocyclopropyl)-1-oxospiro[3H-isoquinoline-4,2′-cyclopropane]-2-yl]acetamide] |  | 8340 nM | 
Cc1cnc(NC(=O)CN2CC3(CC3(F)F)c3cc(C4(F)CC4)ccc3C2=O)nc1 (single isomer, unassigned) [Example 24, N-(5-methylpyrimidin-2-yl)-2-[1′,1′-difluoro-6-(1-fluorocyclopropyl)-1-oxospiro[3H-isoquinoline-4,2′-cyclopropane]-2-yl]acetamide] | 1000 to 10000 nM | 6090 nM | 
O=C(CN1CC2(CC2(F)F)c2cc(C3(F)CC3)ccc2C1=O)Nc1ncc(F)cn1 (single isomer, unassigned) [Example 26, N-(5-fluoropyrimidin-2-yl)-2-[1′,1′-difluoro-6-(1-fluorocyclopropyl)-1-oxospiro[3H-isoquinoline-4,2′-cyclopropane]-2-yl]acetamide] | 1000 to 10000 nM | 5880 nM | 
O=C(CN1CC2(CC2(F)F)c2cc(C3(F)CC3)ccc2C1=O)Nc1ncc(F)cn1 (single isomer, unassigned) [Example 27, N-(5-fluoropyrimidin-2-yl)-2-[1′,1′-difluoro-6-(1-fluorocyclopropyl)-1-oxospiro[3H-isoquinoline-4,2′-cyclopropane]-2-yl]acetamide] |  | 128 nM | < 1000 nM
O=C(CN1CC2(CC2(F)F)c2cc(C3CC3)ccc2C1=O)Nc1ncc(F)cn1 (single isomer, unassigned) [Example 28, N-(5-fluoropyrimidin-2-yl)-2-[6-cyclopropyl-1′,1′-difluoro-1-oxospiro[3H-isoquinoline-4,2′-cyclopropane]-2-yl]acetamide] | 1000 to 10000 nM | 5730 nM | 

Next, values leading:

IC50 [1] | IC50 [2] | IC50 [3] | SMILES
 | 57 nM | < 1000 nM | C[C@]1(O)C[C@@H](NC(=O)CN2CC(C(F)(F)F)c3cc(I)ccc3C2=O)C1 (single isomer, unassigned) [Example 11, N-(3-cis-hydroxy-3-methylcyclobutyl)-2-(6-iodo-1-oxo-4-(trifluoromethyl)-3,4-dihydroisoquinolin-2(1H)-yl)acetamide]
< 1000 nM | 54 nM |  | O=C(CN1C[C@@]2(C[C@@H]2F)c2c(ccc(C(F)(F)F)c2F)C1=O)Nc1ncc(Cl)cn1 (single isomer, unassigned) [Example 12, 2-[(2′s,4r)-2′,5-difluoro-1-oxo-6-(trifluoromethyl)spiro[3H-isoquinoline-4,1′-cyclopropane]-2-yl]-N-(5-chloropyrimidin-2-yl)acetamide]
 | 28 nM | < 1000 nM | O=C(CN1CC2(CC2(F)F)c2cc(Br)ccc2C1=O)Nc1ncc(Cl)cn1 (single isomer, unassigned) [Example 17, N-(5-chloropyrimidin-2-yl)-2-[6-bromo-1′,1′-difluoro-1-oxospiro[3H-isoquinoline-4,2′-cyclopropane]-2-yl]acetamide]
 | 58 nM | < 1000 nM | C[C@]1(O)C[C@@H](NC(=O)CN2CC3(CC3(F)F)c3cc(Br)ccc3C2=O)C1 (single isomer, unassigned) [Example 21, N-(3-cis-hydroxy-3-methylcyclobutyl)-2-[6-bromo-1′,1′-difluoro-1-oxospiro[3H-isoquinoline-4,2′-cyclopropane]-2-yl]acetamide]
< 1000 nM | 32 nM |  | C[C@]1(O)C[C@@H](NC(=O)CN2CC3(CC3(F)F)c3cc(C4(F)CC4)ccc3C2=O)C1 (single isomer, unassigned) [Example 23, N-(3-cis-hydroxy-3-methylcyclobutyl)-2-[1′,1′-difluoro-6-(1-fluorocyclopropyl)-1-oxospiro[3H-isoquinoline-4,2′-cyclopropane]-2-yl]acetamide]
 | 61 nM | < 1000 nM | Cc1cnc(NC(=O)CN2CC3(CC3(F)F)c3cc(C4(F)CC4)ccc3C2=O)nc1 (single isomer, unassigned) [Example 25, N-(5-methylpyrimidin-2-yl)-2-[1′,1′-difluoro-6-(1-fluorocyclopropyl)-1-oxospiro[3H-isoquinoline-4,2′-cyclopropane]-2-yl]acetamide]
